Assay results as given in patent US5200409A, “Composition and use of substituted 1,3-dithiolo-and 1,4-dithiinoquinoxalines as an antimicrobial” (The Dow Chemical Company, priority 1992, dated 1993).
≈ marks a conversion by molar mass, not a printed value. Where two headings read alike, the source gives them in different places.

Experiments:
Escherichia coli (Ec) = test: Minimum inhibitory concentration (MIC) in nutrient agar; type: cell-based, Escherichia coli ATCC 11229
Experimental: (§1) The minimum inhibitory concentration (MIC) for the compounds listed in Table I is determined for 9 bacteria, using nutrient agar: and 7 yeast and fungi, using malt yeast agar. A one percent solution of the test compound is prepared in a mixture of acetone and water. Nutrient agar is prepared at pH 6.8, representing a neutral medium, and at pH 8.2, representing an alkaline medium. The nutrient agars are prepared by adding 23 g of nutrient agar to one-liter of deionized water. In addition, the alkaline medium is prepared by adjusting a 0.04M solution of N-[tris-(hydroxymethyl)methyl]-glycine buffered deionized water with concentrated sodium hydroxide to a pH of […]. Malt yeast agar is prepared by adding 3 g yeast extract and 45 g malt agar per liter of deionized water. The specific agar is dispensed in 30 ml aliquots into 25×200 mm test tubes, capped and autoclaved for 15 minutes at 115° C. The test tubes containing the agar are cooled in a water bath until the temperature of the agar is 48° C. Then, an appropriate amount of the one percent solution of the test compound is added (except in the controls where no compound is added) to the respective test tubes so that the final concentrations are 500, 250, 100, 50, 25, 10, 5, 2.5, 1.0 and zero parts per million of the test compound in the agar, thus having a known concentration of test compound dispersed therein. The contents of the test tubes are then transferred to respective petri plates. After drying for 24 hours, the petri plates containing nutrient agar are inoculated with bacteria and those containing malt yeast agar are inoculated with yeast and fungi.
(§2) The inoculation with bacteria is accomplished by using the following procedure. Twenty-four hour-cultures of each of the bacteria are prepared by incubating the respective bacteria in tubes containing nutrient broth for 24 hours at 30° C. in a shaker. Dilutions of each of the 24 hour-cultures are made so that nine separate suspensions (one for each of the nine test bacteria) are made, each containing 10^8 colony forming units (CFU) per ml of suspension of a particular bacteria. Aliquots of 0.3 ml of each of the bacterial suspensions are used to fill the individual wells of Steer's Replicator. For each microbial suspension, 0.3 ml was used to fill three wells (i.e., three wells of 0.3 ml each) so that for the nine different bacteria, 27 wells are filled. The Steer's Replicator is then used to inoculate both the neutral and alkaline pH nutrient agar petri plates.
(§3) The inoculated petri plates are incubated at 30° C. for 48 hours and then read to determine if the test compound which is incorporated into the agar prevented growth of the respective bacteria.
(§4) Table II lists the bacteria, yeast and fungi used in the MIC test described above along with their respective American Type Culture Collection (ATCC) identification numbers.

Candida albicans (Ca) = test: Minimum inhibitory concentration (MIC) in malt yeast agar; type: cell-based, Candida albicans ATCC 10231; details: malt yeast agar; 30° C.; 48 hours for yeast; read-out: Minimum Inhibitory Concentration, Ca
Experimental: as §1
(§5) The inoculation with the yeast and fungi is accomplished as follows. Cultures of yeast and fungi are incubated for seven days on malt yeast agar at 30° C. These cultures are used to prepare suspensions by the following procedure. A suspension of each organism is prepared by adding 10 ml of sterile saline and 10 microliters of octylphenoxy polyethoxy ethanol to the agar slant of yeast or fungi. The sterile saline/octylphenoxy polyethoxy ethanol solution is then agitated with a sterile swab to suspend the microorganism grown on the slant. Each resulting suspension is diluted into sterile saline (1 part suspension: 9 parts sterile saline). Aliquots of these dilutions are placed in individual wells of Steer's Replicator and petri plates inoculated as previously described. The petri plates are incubated at 30° C. and read after 48 hours for yeast and 72 hours for fungi.
as §4

[1] = system: Salmonella choleraesuis (Sc); test: Minimum inhibitory concentration (MIC) in nutrient agar; type: cell-based, Salmonella choleraesuis ATCC 10708; details: Salmonella enterica
Experimental: as §1, §2, §3, §4

[2] = system: Enterobacter aerogenes (Ea); test: as above; type: cell-based, Enterobacter aerogenes ATCC 13048; details: Klebsiella aerogenes
Experimental: as §1, §2, §3, §4

[3] = system: Aureobasidium pullulan (Ap); test: Minimum inhibitory concentration (MIC) in malt yeast agar; type: cell-based, Aureobasidium pullulan ATCC 16622; details: malt yeast agar; 30° C.; 48 hours for yeast and 72 hours for fungi; read-out: Minimum Inhibitory Concentration, Ap
Experimental: as §1, §5, §4

[4] = system: Penicillium chrysogenum (Pc); test: as above; type: cell-based, Penicillium chrysogenum ATCC 9480; details: read-out: Minimum Inhibitory Concentration, Pc
Experimental: as §1, §5, §4

Fusarium oxysporum (Fo) = test: as above; type: cell-based, Fusarium oxysporum ATCC 48112; details: read-out: Minimum Inhibitory Concentration, Fo
Experimental: as §1, §5, §4

Proteus vulgaris (Pv) = test: Minimum inhibitory concentration (MIC) in nutrient agar; type: cell-based, Proteus vulgaris ATCC 881
Experimental: as §1, §2, §3, §4

[5] = system: Pseudomonas aeruginosa (PRD-10); test: as above; type: cell-based, Pseudomonas aeruginosa ATCC 15442
Experimental: as §1, §2, §3, §4

Bacillus subtilis (Bs) = test: as above; type: cell-based, Bacillus subtilis ATCC 8473; details: 30° C., 48 hours, read-out: Minimum Inhibitory Concentration, Bs
Experimental: as §1, §2, §3, §4

Trichoderma viride (Tv) = test: Minimum inhibitory concentration (MIC) in malt yeast agar; type: cell-based, Trichoderma viride ATCC 8678; details: read-out: Minimum Inhibitory Concentration, Tv
Experimental: as §1, §5, §4

[6] = system: Klebsiella pneumoniae (Kp); test: Minimum inhibitory concentration (MIC) in nutrient agar; type: cell-based, Klebsiella pneumoniae ATCC 8308
Experimental: as §1, §2, §3, §4

Aspergillus niger (An) = test: Minimum inhibitory concentration (MIC) in malt yeast agar; type: cell-based, Aspergillus niger ATCC 16404; details: malt yeast agar; 30° C.; 72 hours for fungi; read-out: Minimum Inhibitory Concentration, An
Experimental: as §1, §5, §4

[7] = system: Saccharomyces cerevisiae (Sc); test: as above; type: cell-based, Saccharomyces cerevisiae ATCC 4105; details: read-out: Minimum Inhibitory Concentration, Sc
Experimental: as §1, §5, §4

[8] = system: Staphylococcus aureus (Sa); test: Minimum inhibitory concentration (MIC) in nutrient agar; type: cell-based, Staphylococcus aureus ATCC 6538
Experimental: as §1, §2, §3, §4

[9] = system: Pseudomonas aeruginosa (Pa); test: as above; type: cell-based, Pseudomonas aeruginosa ATCC 10145; details: 48 hours
Experimental: as §1, §2, §3, §4

[10] = 48 h, pH 8.2, read-out: Minimum Inhibitory Concentration, Ec
[11] = malt yeast agar, 30° C., 72 hours for fungi
[12] = pH 6.8, nutrient agar, 30° C., 48 hours, read-out: Minimum Inhibitory Concentration, Kp
[13] = pH 8.2, nutrient agar, 30° C., 48 hours, read-out: Minimum Inhibitory Concentration, Sa

Question: `Cc1cc2nc3c(nc2cc1[N+](=O)[O-])SC(C#N)=C(C#N)S3` [F, 7-nitro-8-methyl-1,4-dithiino-(2,3-b)-quinoxaline-2,3-dicarbonitrile] was tested. Which MIC (Escherichia coli (Ec); [10]) did it give?
Answer: > 500 µg/mL

Question: And the MIC (Escherichia coli (Ec); pH 6.8, nutrient agar, 30° C., 48 hours, read-out: Minimum Inhibitory Concentration, Ec)?
Answer: 250 µg/mL (≈ 764 µM)

Question: What about the MIC (Candida albicans (Ca)) of the same compound?
Answer: < 10 µg/mL

Question: What about the MIC ([1]; pH 6.8, nutrient agar, 30° C., 48 hours, read-out: Minimum Inhibitory Concentration, Sc) of the same compound?
Answer: 250 µg/mL (≈ 764 µM)

Question: What about the MIC ([1]; pH 8.2, nutrient agar, 30° C., 48 hours, read-out: Minimum Inhibitory Concentration, Sc) of the same compound?
Answer: > 500 µg/mL

Question: What about the MIC ([2]; pH 6.8, nutrient agar, 30° C., 48 hours, read-out: Minimum Inhibitory Concentration, Ea) of the same compound?
Answer: 500 µg/mL (≈ 1530 µM)

Question: What about the MIC ([2]; pH 8.2, nutrient agar, 30° C., 48 hours, read-out: Minimum Inhibitory Concentration, Ea) of the same compound?
Answer: > 500 µg/mL

Question: And the MIC [3]?
Answer: < 10 µg/mL

Question: What about the MIC [4, 11] of the same compound?
Answer: < 10 µg/mL

Question: And the MIC (Fusarium oxysporum (Fo); [11])?
Answer: < 10 µg/mL

Question: What about the MIC (Proteus vulgaris (Pv); pH 6.8, nutrient agar, 30° C., 48 hours, read-out: Minimum Inhibitory Concentration, Pv) of the same compound?
Answer: 50 µg/mL (≈ 153 µM)

Question: And the MIC (Proteus vulgaris (Pv); pH 8.2, nutrient agar, 30° C., 48 hours, read-out: Minimum Inhibitory Concentration, Pv)?
Answer: > 500 µg/mL

Question: What about the MIC ([5]; pH 6.8, nutrient agar, 30° C., 48 hours, read-out: Minimum Inhibitory Concentration, PRD) of the same compound?
Answer: > 500 µg/mL

Question: What about the MIC ([5]; pH 8.2, nutrient agar, 30° C., 48 hours, read-out: Minimum Inhibitory Concentration, PRD) of the same compound?
Answer: > 500 µg/mL

Question: And the MIC (Bacillus subtilis (Bs); pH 6.8, nutrient agar)?
Answer: < 10 µg/mL

Question: And the MIC (Bacillus subtilis (Bs); pH 8.2, nutrient agar)?
Answer: 50 µg/mL (≈ 153 µM)

Question: What about the MIC (Trichoderma viride (Tv); [11]) of the same compound?
Answer: 25 µg/mL (≈ 76.4 µM)

Question: What about the MIC [6, 12] of the same compound?
Answer: 100 µg/mL (≈ 305 µM)

Question: And the MIC ([6]; pH 8.2, nutrient agar, 30° C., 48 hours, read-out: Minimum Inhibitory Concentration, Kp)?
Answer: > 500 µg/mL

Question: What about the MIC (Aspergillus niger (An)) of the same compound?
Answer: < 10 µg/mL

Question: What about the MIC ([7]; malt yeast agar, 30° C., 48 hours for yeast) of the same compound?
Answer: < 10 µg/mL

Question: And the MIC ([8]; 48 h, pH 6.8, read-out: Minimum Inhibitory Concentration, Sa)?
Answer: < 10 µg/mL

Question: What about the MIC [8, 13] of the same compound?
Answer: 50 µg/mL (≈ 153 µM)

Question: And the MIC ([9]; pH 6.8, 30° C.)?
Answer: 500 µg/mL (≈ 1530 µM)

Question: And the MIC ([9]; pH 8.2, 30° C.)?
Answer: > 500 µg/mL

Question: Which MIC (Escherichia coli (Ec); 48 h, pH 6.8, read-out: Minimum Inhibitory Concentration, Ec) does the source give for `N#CC1=C(C#N)Sc2nc3cc([N+](=O)[O-])c(Cl)cc3nc2S1` [G, 7-chloro-8-nitro-1,4-dithiino-(2,3-b)-quinoxaline-2,3-dicarbonitrile] here?
Answer: > 500 µg/mL

Question: And the MIC (Escherichia coli (Ec); [10])?
Answer: > 500 µg/mL

Question: What about the MIC (Candida albicans (Ca)) of the same compound?
Answer: 25 µg/mL (≈ 71.9 µM)

Question: What about the MIC ([1]; 48 h, pH 6.8, read-out: Minimum Inhibitory Concentration, Sc) of the same compound?
Answer: > 500 µg/mL

Question: And the MIC ([1]; 48 h, pH 8.2, read-out: Minimum Inhibitory Concentration, Sc)?
Answer: > 500 µg/mL

Question: What about the MIC ([2]; 48 h, pH 6.8, read-out: Minimum Inhibitory Concentration, Ea) of the same compound?
Answer: > 500 µg/mL

Question: What about the MIC ([2]; 48 h, pH 8.2, read-out: Minimum Inhibitory Concentration, Ea) of the same compound?
Answer: > 500 µg/mL

Question: And the MIC [3]?
Answer: 25 µg/mL (≈ 71.9 µM)

Question: What about the MIC ([4]; 72 h) of the same compound?
Answer: 100 µg/mL (≈ 288 µM)

Question: What about the MIC (Fusarium oxysporum (Fo); 72 h) of the same compound?
Answer: 100 µg/mL (≈ 288 µM)

Question: And the MIC (Proteus vulgaris (Pv); 48 h, pH 6.8, read-out: Minimum Inhibitory Concentration, Pv)?
Answer: > 500 µg/mL

Question: What about the MIC (Proteus vulgaris (Pv); 48 h, pH 8.2, read-out: Minimum Inhibitory Concentration, Pv) of the same compound?
Answer: > 500 µg/mL

Question: And the MIC ([5]; 48 h, pH 6.8, read-out: Minimum Inhibitory Concentration, PRD)?
Answer: > 500 µg/mL

Question: And the MIC ([5]; 48 h, pH 8.2, read-out: Minimum Inhibitory Concentration, PRD)?
Answer: > 500 µg/mL

Question: And the MIC (Bacillus subtilis (Bs); pH 6.8, nutrient agar)?
Answer: 250 µg/mL (≈ 719 µM)

Question: And the MIC (Bacillus subtilis (Bs); pH 8.2, nutrient agar)?
Answer: 100 µg/mL (≈ 288 µM)

Question: And the MIC (Trichoderma viride (Tv); 72 h)?
Answer: 100 µg/mL (≈ 288 µM)

Question: What about the MIC ([6]; 48 h, pH 8.2, read-out: Minimum Inhibitory Concentration, Kp) of the same compound?
Answer: > 500 µg/mL

Question: And the MIC [6, 12]?
Answer: 500 µg/mL (≈ 1440 µM)

Question: What about the MIC (Aspergillus niger (An)) of the same compound?
Answer: 25 µg/mL (≈ 71.9 µM)

Question: What about the MIC ([7]; 48 h) of the same compound?
Answer: 25 µg/mL (≈ 71.9 µM)

Question: What about the MIC ([8]; pH 6.8, nutrient agar, 30° C., 48 hours, read-out: Minimum Inhibitory Concentration, Sa) of the same compound?
Answer: 25 µg/mL (≈ 71.9 µM)

Question: And the MIC [8, 13]?
Answer: 50 µg/mL (≈ 144 µM)

Question: What about the MIC ([9]; pH 6.8, 30° C.) of the same compound?
Answer: > 500 µg/mL

Question: And the MIC ([9]; pH 8.2, 30° C.)?
Answer: > 500 µg/mL
